Data as given in US10851093B2, “Tyrosine kinase inhibitors” (Rigel Pharmaceuticals, Inc., priority 2018, dated 2020).

Tests used:
MerTK = target: T1, MerTK (Homo sapiens, UniProt Q12866); assay: Phospho-AKT HTRF, HUVEC, Mer-XL, 8 pt (pAKT HTRF-HUVEC assay, anti-human MerTK-XL stimulation); format: cell-based; details: HUVEC cells, pAkt(Ser473) HTRF, anti-human MerTK-XL stimulation 1 ug/mL 10 minutes
T1 construct: Seed HUVECs (10K cells/well) in EBM-2 complete media; host or cells: HUVEC
T1 sequence (Q12866 21-999): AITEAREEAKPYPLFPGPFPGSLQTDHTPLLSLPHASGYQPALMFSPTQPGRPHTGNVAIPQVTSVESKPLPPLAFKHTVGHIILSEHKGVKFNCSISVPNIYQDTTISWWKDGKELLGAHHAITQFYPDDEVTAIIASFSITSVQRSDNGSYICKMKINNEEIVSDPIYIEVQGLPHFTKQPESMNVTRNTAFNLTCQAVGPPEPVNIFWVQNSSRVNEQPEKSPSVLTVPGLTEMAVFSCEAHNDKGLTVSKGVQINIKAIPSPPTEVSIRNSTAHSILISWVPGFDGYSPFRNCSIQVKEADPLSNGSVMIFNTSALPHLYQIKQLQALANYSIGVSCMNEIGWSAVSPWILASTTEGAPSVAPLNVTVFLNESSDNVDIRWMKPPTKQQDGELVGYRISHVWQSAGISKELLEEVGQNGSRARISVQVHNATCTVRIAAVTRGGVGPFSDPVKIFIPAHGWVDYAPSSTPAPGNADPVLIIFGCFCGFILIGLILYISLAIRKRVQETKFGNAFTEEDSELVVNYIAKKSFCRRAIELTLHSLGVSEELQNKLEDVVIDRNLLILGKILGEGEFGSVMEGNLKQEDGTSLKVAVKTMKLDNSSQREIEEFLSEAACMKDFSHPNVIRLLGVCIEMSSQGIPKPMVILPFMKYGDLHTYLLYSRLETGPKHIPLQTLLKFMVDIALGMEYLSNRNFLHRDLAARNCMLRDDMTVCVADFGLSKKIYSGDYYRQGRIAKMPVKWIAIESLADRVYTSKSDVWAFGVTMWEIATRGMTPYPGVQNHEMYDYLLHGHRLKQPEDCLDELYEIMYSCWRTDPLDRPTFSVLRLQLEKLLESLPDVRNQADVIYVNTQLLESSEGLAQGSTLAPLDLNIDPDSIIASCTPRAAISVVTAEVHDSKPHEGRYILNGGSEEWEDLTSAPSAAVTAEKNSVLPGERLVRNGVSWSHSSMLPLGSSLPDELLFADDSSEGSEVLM

Axl = target: T2, Axl (Homo sapiens, UniProt P30530); assay: Phospho-AKT HTRF, HUVEC, Axl ABX-L, 8 pt; format: cell-based; details: HUVEC cells, pAkt(Ser473) HTRF, Axl ABX-L stimulation
T2 construct: Seed HUVECs (10K cells/well) in EBM-2 complete media; host or cells: HUVEC
T2 sequence (P30530 26-894): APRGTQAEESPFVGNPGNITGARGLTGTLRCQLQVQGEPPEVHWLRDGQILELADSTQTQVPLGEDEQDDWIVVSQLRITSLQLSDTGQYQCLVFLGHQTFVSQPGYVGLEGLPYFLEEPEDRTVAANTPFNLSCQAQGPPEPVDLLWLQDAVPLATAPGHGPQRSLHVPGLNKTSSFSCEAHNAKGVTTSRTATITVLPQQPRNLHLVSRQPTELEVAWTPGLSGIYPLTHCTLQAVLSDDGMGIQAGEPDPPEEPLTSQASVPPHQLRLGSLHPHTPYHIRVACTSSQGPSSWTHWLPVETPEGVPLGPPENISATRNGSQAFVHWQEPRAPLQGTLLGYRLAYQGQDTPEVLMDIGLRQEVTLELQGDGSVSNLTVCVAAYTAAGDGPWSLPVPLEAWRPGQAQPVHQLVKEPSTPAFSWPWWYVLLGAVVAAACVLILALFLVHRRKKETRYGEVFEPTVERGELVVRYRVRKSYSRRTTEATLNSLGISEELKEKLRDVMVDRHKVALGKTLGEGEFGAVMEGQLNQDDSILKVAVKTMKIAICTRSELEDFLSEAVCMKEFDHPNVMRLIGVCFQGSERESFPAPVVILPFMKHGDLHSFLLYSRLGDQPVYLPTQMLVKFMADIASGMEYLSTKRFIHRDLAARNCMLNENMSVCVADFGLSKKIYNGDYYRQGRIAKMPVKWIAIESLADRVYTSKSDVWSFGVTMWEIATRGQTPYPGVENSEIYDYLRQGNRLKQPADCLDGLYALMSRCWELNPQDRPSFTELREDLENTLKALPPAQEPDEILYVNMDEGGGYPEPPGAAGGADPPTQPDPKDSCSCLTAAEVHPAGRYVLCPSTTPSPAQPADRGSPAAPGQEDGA

- EC50 (MerTK): 654 nM
- EC50 (Axl): 742 nM
Compound: COc1cc2c(Oc3ccc(NC(=O)c4cccc(N5CCC(O)CC5)n4)nc3)ccnc2cc1OCCCN1CCOCC1 [Compound 24, 6-(4-hydroxypiperidin-1-yl)-N-(5-((6-methoxy-7-(3-morpholinopropoxy)quinolin-4-yl)oxy)pyridin-2-yl)picolinamide]
